Test results from the supplement of paper PMC8671470.

Key:
Experiment in all cases: cell viability (% survival relative to DMSO control, bortezomib = 0%); higher = less cytotoxic
Conditions in all cases: 72 h
[1] = tested on: KCL-22
How it was run: (§1)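 Reported values are percent survival from duplicate wells, averaged. Fifteen myeloid leukaemia cell lines were treated in 384-well plates with compounds at 1, 10, 100, 1000 or 10000 nM for 72 h at 37 °C in 5% CO2. Signals from CellTiter-Glo luminescence were scaled with vehicle as 100% and a 10 µM positive control as 0%.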

[2] = tested on: KG-1
How it was run: as §1

[3] = tested on: KU-812
How it was run: as §1

[4] = tested on: THP-1
How it was run: as §1

SMILES	cell viability ([1]; 1 nM)	cell viability ([1]; 10 nM)	cell viability ([1]; 100 nM)	cell viability ([1]; 1000 nM)	cell viability ([1]; 10000 nM)	cell viability ([2]; 1 nM)	cell viability ([2]; 10 nM)	cell viability ([2]; 100 nM)	cell viability ([2]; 1000 nM)	cell viability ([2]; 10000 nM)	cell viability ([3]; 1 nM)	cell viability ([3]; 10 nM)	cell viability ([3]; 100 nM)	cell viability ([3]; 1000 nM)	cell viability ([3]; 10000 nM)	cell viability ([4]; 1 nM)	cell viability ([4]; 10 nM)	cell viability ([4]; 100 nM)	cell viability ([4]; 1000 nM)	cell viability ([4]; 10000 nM)
NC(=O)c1ncn([C@@H]2O[C@H](CO)[C@@H](O)[C@H]2O)n1 [Ribavirin]	72.9%	104%	114%	107%	103%	98.9%	110%	96.8%	95.2%	98.1%	81.4%	92.7%	91.3%	104%	94.6%	96.5%	103%	107%	107%	112%
Oc1cc(Cl)ccc1Oc1ccc(Cl)cc1Cl [Triclosan]	115%	98.3%	89.7%	105%	65.5%	111%	89.3%	98.3%	109%	143%	98.8%	87%	99.2%	98%	57.9%	92.7%	98.5%	103%	108%	92%
O=C1Oc2ccccc2C(=O)C1CC1C(=O)Oc2ccccc2C1=O (centres undefined) [Dicumarol]	96.6%	97.3%	107%	107%	102%	106%	105%	88.6%	101%	95.9%	110%	95.6%	84.2%	97.8%	107%	100%	102%	96.3%	103%	94.2%
CC(C)Cc1sc(N)nc1-c1ccc(P(=O)(O)O)o1	95.8%	108%	108%	112%	101%	110%	90.8%	102%	98.8%	108%	96.3%	94.9%	98.7%	90.6%	88.2%	107%	103%	98.3%	104%	95.5%
CN(C)c1nc(O)c2[nH]cnc2n1 [2-Dimethylamino-6-hydroxypurine]	98.2%	81.3%	106%	99%	87.1%	106%	94.3%	92.7%	96.7%	85.8%	93.8%	96.7%	91%	94.2%	103%	95.1%	94.5%	86.6%	97.3%	97.3%
COc1c(C)c2c(c(O)c1C/C=C(\C)CCC(=O)O)C(=O)OC2 [Mycophenolic acid]	105%	98.8%	79.8%	24.7%	8.9%	101%	104%	94.5%	70.6%	18.5%	94.6%	94.5%	104%	51.7%	10.9%	112%	95.7%	103%	97.5%	59.2%
O=C(O)C(Cl)Cl [Dichloroacetate]	101%	97.7%	93.4%	92.1%	102%	108%	94.6%	91.5%	93%	103%	97.1%	90.9%	99%	108%	100%	100%	98%	103%	95.8%	102%
O=C(O)c1cc2sccc2[nH]1 [4H-thieno[3,2-b]pyrrole-5-carboxylic acid]	90.3%	104%	84.7%	101%	99.8%	105%	106%	92.7%	91.8%	95.2%	95.9%	98.3%	98.9%	101%	108%	105%	102%	106%	97.7%	105%
CCOc1ccc(Cc2cc([C@@H]3O[C@H](CO)[C@@H](O)[C@H](O)[C@H]3O)ccc2Cl)cc1 [Dapagliflozin]	116%	109%	54.2%	96.7%	107%	95.5%	102%	83.6%	101%	91.8%	85.7%	96.5%	90.5%	106%	81.3%	88.4%	100%	86.4%	101%	90.1%
CCN(CC)CCN(Cc1ccc(-c2ccc(C(F)(F)F)cc2)cc1)C(=O)Cn1c(SCc2ccc(F)cc2)nc(=O)c2c1CCC2 [Darapladib]	112%	113%	114%	86.3%	-0.547%	104%	108%	93.6%	87.8%	0.0114%	110%	93.6%	100%	80.7%	-0.56%	107%	98.8%	100%	96.3%	-0.44%
Nc1ncnc2c1ncn2[C@@H]1O[C@H](CSCC[C@H](N)C(=O)O)[C@@H](O)[C@H]1O [S-Adenosyl Homocysteine]	97.5%	113%	98.5%	94.5%	102%	110%	106%	98.1%	100%	102%	90.8%	96.9%	99.2%	104%	105%	103%	90.8%	100%	98.9%	111%
[N-]=[N+]=CC(=O)CC[C@H](N)C(=O)O [6-Diazo-5-oxo-L-norleucine]	94.7%	104%	109%	109%	101%	110%	95.2%	101%	117%	98.9%	95%	102%	110%	97.3%	104%	98.1%	96.7%	100%	102%	106%
CCOC(=O)N1c2ccc(C(F)(F)F)cc2[C@@H](N(Cc2cc(C(F)(F)F)cc(C(F)(F)F)c2)C(=O)OC)C[C@H]1CC [Torcetrapib]	105%	107%	126%	98.3%	86.8%	84.9%	52.6%	107%	81.1%	45.1%	101%	112%	113%	102%	83.8%	103%	97.6%	99.4%	101%	92.2%
CC(C)C[C@H](NC(=O)[C@@H](O)[C@H](N)Cc1ccccc1)C(=O)O [Ubenimex]	118%	120%	–	89.2%	95.2%	111%	105%	98.9%	92.2%	88.9%	110%	109%	97.8%	97.4%	115%	89.2%	97.9%	93.1%	84.8%	94.8%
CC(Cc1ccc(O)c(O)c1)C(C)Cc1ccc(O)c(O)c1 (centres undefined) [Masoprocol]	99.8%	85.9%	120%	108%	66.2%	99%	109%	108%	94.8%	48.2%	102%	94.3%	102%	102%	59.4%	95.4%	98.4%	96.2%	93.4%	85.9%
O=C1Nc2ccccc2/C1=C\NCCc1ccc(O)c(O)c1 [AC1NZZMF]	79.2%	90.9%	102%	106%	94.3%	112%	106%	104%	95.7%	78.7%	114%	113%	108%	110%	68.7%	108%	103%	100%	108%	79.9%
Clc1ccc(COC(Cn2ccnc2)c2ccc(Cl)cc2Cl)cc1 (centres undefined) [Econazole]	116%	91.2%	96.9%	84.2%	54.8%	97.4%	95.3%	101%	86%	52.2%	113%	101%	87.2%	89.5%	41.9%	102%	94.9%	95.7%	87.9%	62%
O=C(O)c1nn(Cc2ccc(Cl)cc2Cl)c2ccccc12 [Lonidamine]	103%	111%	107%	84%	90.7%	97.8%	103%	103%	84.7%	71.9%	103%	97%	112%	97%	88.8%	107%	97%	102%	99.3%	101%
CCOC(=O)[C@@]1(CCCCCCOc2ccc(Cl)cc2)CO1 [Etomoxir]	104%	112%	116%	101%	78.9%	94.3%	99.8%	112%	94.5%	91.1%	91.3%	110%	93.5%	82.7%	60.8%	98.3%	105%	97.3%	96.4%	102%
N[C@](CCCCB(O)O)(CCN1CCCCC1)C(=O)O [Arginase inhibitor 1]	97%	84.6%	104%	102%	90.9%	97.2%	84.2%	96.6%	100%	92%	102%	84.6%	85.6%	108%	89.4%	105%	88.6%	101%	99%	102%
O=C(COc1ccc(C(=O)c2ccccc2)cc1)NC1CCN(Cc2ccccc2)CC1 [AdipoRon]	102%	110%	102%	108%	76.3%	93.9%	107%	104%	91.9%	59.6%	94.6%	114%	90.9%	98.3%	41.5%	96.2%	98.8%	102%	91.6%	104%
Cl.OC[C@H]1NC[C@@H](O)[C@@H](O)[C@@H]1O [1-Deoxymannojirimycin hydrochloride]	95.9%	86.8%	96.4%	111%	105%	105%	92.3%	90.6%	112%	94.1%	101%	89.2%	95.7%	98%	98.1%	107%	91%	98%	102%	91.9%
C[C@H]1O[C@@H](O[C@H]2[C@@H](O)C[C@H](O[C@H]3[C@@H](O)C[C@H](O[C@H]4CC[C@@]5(C)[C@H](CC[C@@H]6[C@@H]5C[C@@H](O)[C@]5(C)[C@@H](C7=CC(=O)OC7)CC[C@]65O)C4)O[C@@H]3C)O[C@@H]2C)C[C@H](O)[C@@H]1O [Digoxin]	99.1%	95.3%	25%	0.788%	0.361%	92%	108%	27.9%	0.685%	-0.0339%	92.2%	113%	30.5%	4.45%	4.24%	85.8%	95.6%	32.6%	0.766%	-0.172%
CC(C(=O)O)C(=O)O [Methylmalonate]	91.7%	100%	112%	88.3%	93.6%	92.5%	90.8%	91.2%	88.9%	88.4%	90.1%	93.7%	97%	90.5%	85.6%	98.5%	94.5%	101%	103%	87.6%
